Results reported in US7144893B2, “4-aryl quinols and analogs thereof as therapeutic agents” (Cancer Research Technology Limited, priority 2001, dated 2006).

Test system: human renal tumor xenograft RXF 944LX
Test: In vivo antitumor activity, renal tumor xenograft
Settings: for DT (tumor doubling time) / T/C (optimal test/control) / GD (growth delay): 15 mg/kg i.p.
Method: Animals. Six to eight weeks old outbred nude mice of NMRI genetic background were used for all experiments. The animals were bred and raised in animal facilities in Freiburg, Germany and housed in Macrolon™ cages. The mice were kept under laminar air flow on natural day light cycles. Diet (Altromin, Lage, Germany) and water were provided ad libitum and room temperature (25+/−2° C.) as well as humidity (60+/−10%) were maintained. The experiments were conducted essentially according to the UKCCCR guidelines under a project license approved by the German Federal Government (Regierungspräsidium Freiburg). The gender of the mice was chosen according to the gender of the patients from which the tumors were originally derived.
Tumors and Data Evaluation. For the experiments, three subcutaneously (s.c.) growing renal human tumor xenograft models from the Freiburg tumor panel were selected (RXF 944LX, RXF 393, and RXF 1220). All renal cell carcinomas were hypernephromas. For the experiments, the latter were engrafted from tumors in serial passage growing s.c. in nude mice. Fragments of approximately 25 mg were implanted s.c. in both flanks of the animals. When the tumors were clearly palpable and had reached a volume of 100–200 mm^3, animals (6–12 tumors) were randomly allocated into treatment groups. Tumor growth was followed twice weekly by serial caliper measurement. Tumor volumes were calculated using the formula length×width^2/2, where length (a) is the largest dimension and width (b) the smallest dimension perpendicular to the length (a×b^2/2) (see, e.g., Geran et al., 1972).
Data evaluation was performed using software by plotting relative tumor volume against time. Relative tumor volumes were calculated for each single tumor by dividing the tumor volume on day X by the tumor volume on day 0 at the time of randomization. Tumor doubling time of test and control groups was defined as the period required to double the initial tumor volume (200%). Growth curves were analyzed in terms of maximal tumor inhibition (treated/control, T/C, calculated as median tumor weight of treated animals divided by median tumor weight of control animals times 100), growth delay (the difference in days to double the initial tumor volume of the test minus the control groups). Median relative tumor volumes of each treatment group were compared to those of the control group. Human tumors growing s.c. in nude mice were treated intraperitoneally (i.p.) with doses of 15 and 10 mg/kg drug either on days 1 and 2; on days 1 and 5; on days 1 and 8; or on days 1, 5 and 8.
The drug doses and treatment schedules used, were determined as being tolerated in non-tumor bearing nude mice prior to initiation of tumor experiments.

O=C1C=CC(O)(c2nc3ccccc3s2)C=C1 [Q05, 4-(Benzothiazol-2-yl)-4-hydroxy-2,5-cyclohexadien-1-one]
DT (tumor doubling time) (days 1, 2): 4.1
T/C (optimal test/control) (days 1, 2): 27
GD (growth delay) (days 1, 2, difference in days to double initial tumor volume): 2.9
DT (tumor doubling time) (days 1, 8): 4.2
T/C (optimal test/control) (days 1, 8): 43
GD (growth delay) (days 1, 8, difference in days to double initial tumor volume): 2.3
toxic death in treatment group (FIG. 2, six animals per group): 1/6
T/C (FIG. 2, six animals per group, 11–12 tumors per group): 43%
T/C (FIG. 3, three animals per group): 27%
